Measured values as given in PubChem BioAssay AID2060888 (Molecular Pharmacology Branch, DTP, NCI, 2025).
Several values for one entry are separate records, joined by “and”; a condition that tells them apart may be missing. Identical values can stand only once.

System: 695427-040-R-J1-PDC complex spheroid viability
Assay: Anticancer human tumor 695427-040-R-J1-PDC patient-derived colon adenocarcinoma cell line growth inhibition [RAS]
Conditions: for viability, T/C: stronger effect = lower value
Outline: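 Multi-cell-type spheroids: tumor cells plus HUVEC endothelial cells and mesenchymal stem cells. RAS-pathway inhibitors were combined with targeted agents, each dosed in half-log steps down from clinical Cmax, or from 10 microM when Cmax was unknown.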

[1] = curve of first compound, second compound 0.000949 µM
[2] = curve of first compound, second compound 0.003 µM
[3] = curve of first compound, second compound 0.00949 µM
[4] = curve of first compound, second compound 0.03 µM
[5] = curve of first compound, second compound 0.0949 µM
[6] = curve of first compound, second compound 0.3 µM
[7] = second compound 0.000949 µM, first compound 0.0316 µM
[8] = second compound 0.000949 µM, first compound 0.1 µM
[9] = second compound 0.000949 µM, first compound 0.316 µM
[10] = second compound 0.000949 µM, first compound 1 µM
[11] = second compound 0.003 µM, first compound 0.0316 µM
[12] = second compound 0.003 µM, first compound 0.1 µM
[13] = second compound 0.003 µM, first compound 0.316 µM
[14] = second compound 0.003 µM, first compound 1 µM
[15] = second compound 0.00949 µM, first compound 0.0316 µM
[16] = second compound 0.00949 µM, first compound 0.1 µM
[17] = second compound 0.00949 µM, first compound 0.316 µM
[18] = second compound 0.00949 µM, first compound 1 µM
[19] = second compound 0.03 µM, first compound 0.0316 µM
[20] = second compound 0.03 µM, first compound 0.1 µM
[21] = second compound 0.03 µM, first compound 0.316 µM
[22] = second compound 0.03 µM, first compound 1 µM
[23] = second compound 0.0949 µM, first compound 0.0316 µM
[24] = second compound 0.0949 µM, first compound 0.1 µM
[25] = second compound 0.0949 µM, first compound 0.316 µM
[26] = second compound 0.0949 µM, first compound 1 µM
[27] = second compound 0.3 µM, first compound 0.0316 µM
[28] = second compound 0.3 µM, first compound 0.1 µM
[29] = second compound 0.3 µM, first compound 0.316 µM
[30] = second compound 0.3 µM, first compound 1 µM
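Note: viability read after seven days of drug exposure.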
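Throughout, for viability, T/C: 100% = DMSO vehicle control viability.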

Compound `O=C(c1ccc(F)c(F)c1Nc1ccc(I)cc1F)N1CC(O)([C@@H]2CCCCN2)C1` + CCn1c(-c2cc(N3CCN(C)CC3)cnc2C(C)OC)c2c3cc(ccc31)-c1csc(n1)CC(NC(=O)C1CC1C)C(=O)N1CCCC(N1)C(=O)OCC(C)(C)C2 has an IC50 [1] of 73.6 nM, an IC50 [2] of 43.1 nM and an IC50 [3] of 26.5 nM. It also gave an IC50 [4] of 4.98 nM, an IC50 [5] of under 3.16 nM and an IC50 [6] of under 3.16 nM. For the same compound, the viability, T/C (second compound 0.000949 µM, first compound 0.00316 µM) was 79.7%, the viability, T/C (second compound 0.000949 µM, first compound 0.01 µM) was 75.5% and the viability, T/C [7] was 65.4%. The viability, T/C [8] was 45.2%, the viability, T/C [9] was 18.3% and the viability, T/C [10] was 6.04%. It also gave a viability, T/C (second compound 0.003 µM, first compound 0.00316 µM) of 91.8%, a viability, T/C (second compound 0.003 µM, first compound 0.01 µM) of 74.2% and a viability, T/C [11] of 53.8%. For the same compound, the viability, T/C [12] was 40%, the viability, T/C [13] was 14.5% and the viability, T/C [14] was 7.31%. It also gave a viability, T/C (second compound 0.00949 µM, first compound 0.00316 µM) of 73.1%, a viability, T/C (second compound 0.00949 µM, first compound 0.01 µM) of 63.4% and a viability, T/C [15] of 45.9%. The viability, T/C [16] was 32.7%, the viability, T/C [17] was 11.4% and the viability, T/C [18] was 7.1%. It also gave a viability, T/C (second compound 0.03 µM, first compound 0.00316 µM) of 57.8%, a viability, T/C (second compound 0.03 µM, first compound 0.01 µM) of 37.1% and a viability, T/C [19] of 28.5%. It also gave a viability, T/C [20] of 18.5%, a viability, T/C [21] of 8.58% and a viability, T/C [22] of 5.7%. The viability, T/C (second compound 0.0949 µM, first compound 0.00316 µM) was 28.6%, the viability, T/C (second compound 0.0949 µM, first compound 0.01 µM) was 27.8% and the viability, T/C [23] was 15.5%. It also gave a viability, T/C [24] of 7.38%, a viability, T/C [25] of 6.14% and a viability, T/C [26] of 4.07%. The viability, T/C (second compound 0.3 µM, first compound 0.00316 µM) was 23.2%, the viability, T/C (second compound 0.3 µM, first compound 0.01 µM) was 17.1% and the viability, T/C [27] was 11.6%. For the same compound, the viability, T/C [28] was 6.62%, the viability, T/C [29] was 6.7% and the viability, T/C [30] was 5.28%.

For `CC(Nc1ccc2c(c1)OCCn1cc(N3C(=O)OCC3C(F)F)nc1-2)C(N)=O` (configuration not stated) + CCn1c(-c2cccnc2C(C)OC)c2c3cc(ccc31)N1CCOC(CC(NC(=O)C(C(C)C)N(C)C(=O)C3(F)CCN(C(=O)C#CC(C)(C)N(C)C)CC3)C(=O)N3CCCC(N3)C(=O)OCC(C)(C)C2)C1, the IC50 [1] was over 10000 nM, the IC50 [2] was 8530 nM and the IC50 [3] was over 10000 nM. The IC50 [4] was over 10000 nM, the IC50 [5] was over 10000 nM and the IC50 [6] was over 10000 nM. For the same compound, the viability, T/C [7] was 80.8%, the viability, T/C [8] was 68.8% and the viability, T/C [9] was 68.7%. For the same compound, the viability, T/C [10] was 34.9%, the viability, T/C (second compound 0.000949 µM, first compound 3.16 µM) was 80.1% and the viability, T/C (second compound 0.000949 µM, first compound 10 µM) was 39.4%. It also gave a viability, T/C [11] of 95.4%, a viability, T/C [12] of 79.6% and a viability, T/C [13] of 62.1%. The viability, T/C [14] was 50.1%, the viability, T/C (second compound 0.003 µM, first compound 3.16 µM) was 86% and the viability, T/C (second compound 0.003 µM, first compound 10 µM) was 37.5%. It also gave a viability, T/C [15] of 103%, a viability, T/C [16] of 84.1% and a viability, T/C [17] of 72.3%. For the same compound, the viability, T/C [18] was 62.9%, the viability, T/C (second compound 0.00949 µM, first compound 3.16 µM) was 81.9% and the viability, T/C (second compound 0.00949 µM, first compound 10 µM) was 42.3%. For the same compound, the viability, T/C [19] was 91.8%, the viability, T/C [20] was 70.1% and the viability, T/C [21] was 59.9%. The viability, T/C [22] was 45.3%, the viability, T/C (second compound 0.03 µM, first compound 3.16 µM) was 89.3% and the viability, T/C (second compound 0.03 µM, first compound 10 µM) was 37.8%. It also gave a viability, T/C [23] of 71.8%, a viability, T/C [24] of 67.5% and a viability, T/C [25] of 52.6%. The viability, T/C [26] was 50.4%, the viability, T/C (second compound 0.0949 µM, first compound 3.16 µM) was 100% and the viability, T/C (second compound 0.0949 µM, first compound 10 µM) was 40.9%. It also gave a viability, T/C [27] of 69.6%, a viability, T/C [28] of 52% and a viability, T/C [29] of 70.8%. The viability, T/C [30] was 52.8%, the viability, T/C (second compound 0.3 µM, first compound 3.16 µM) was 69.1% and the viability, T/C (second compound 0.3 µM, first compound 10 µM) was 42.1%.

In the case of `CCC(CC)c1cc(NC2CCC(N)C2)n2nccc2n1` (configuration not stated) + C=CC(=O)N1CCN(c2nc(OCC3CCCN3C)nc3c(F)c(-c4nc(N)cc(C)c4C(F)(F)F)c(Cl)cc23)C(C)C1, the IC50 (curve of first compound, second compound 0.00316 µM) is reported as 1920 nM, the IC50 (curve of first compound, second compound 0.01 µM) is reported as 2070 nM and the IC50 (curve of first compound, second compound 0.0316 µM) is reported as 1950 nM. The IC50 (curve of first compound, second compound 0.1 µM) was 1870 nM, the IC50 (curve of first compound, second compound 0.316 µM) was 1950 nM and the IC50 (curve of first compound, second compound 1 µM) was 1800 nM. For the same compound, the viability, T/C (second compound 0.00316 µM, first compound 0.0316 µM) was 93.3%, the viability, T/C (second compound 0.00316 µM, first compound 0.1 µM) was 94.8% and the viability, T/C (second compound 0.00316 µM, first compound 0.316 µM) was 109%. It also gave a viability, T/C (second compound 0.00316 µM, first compound 1 µM) of 106%, a viability, T/C (second compound 0.00316 µM, first compound 3.16 µM) of 9.52% and a viability, T/C (second compound 0.00316 µM, first compound 10 µM) of 12.3%. The viability, T/C (second compound 0.01 µM, first compound 0.0316 µM) was 105%, the viability, T/C (second compound 0.01 µM, first compound 0.1 µM) was 96.1% and the viability, T/C (second compound 0.01 µM, first compound 0.316 µM) was 119%. The viability, T/C (second compound 0.01 µM, first compound 1 µM) was 116%, the viability, T/C (second compound 0.01 µM, first compound 3.16 µM) was 15.3% and the viability, T/C (second compound 0.01 µM, first compound 10 µM) was 11.1%. The viability, T/C (second compound 0.0316 µM, first compound 0.0316 µM) was 105%, the viability, T/C (second compound 0.0316 µM, first compound 0.1 µM) was 99.4% and the viability, T/C (second compound 0.0316 µM, first compound 0.316 µM) was 105%. The viability, T/C (second compound 0.0316 µM, first compound 1 µM) was 101%, the viability, T/C (second compound 0.0316 µM, first compound 3.16 µM) was 13% and the viability, T/C (second compound 0.0316 µM, first compound 10 µM) was 11.9%. The viability, T/C (second compound 0.1 µM, first compound 0.0316 µM) was 100%, the viability, T/C (second compound 0.1 µM, first compound 0.1 µM) was 98.2% and the viability, T/C (second compound 0.1 µM, first compound 0.316 µM) was 116%. It also gave a viability, T/C (second compound 0.1 µM, first compound 1 µM) of 94.4%, a viability, T/C (second compound 0.1 µM, first compound 3.16 µM) of 13.1% and a viability, T/C (second compound 0.1 µM, first compound 10 µM) of 12.1%. The viability, T/C (second compound 0.316 µM, first compound 0.0316 µM) was 89.4%, the viability, T/C (second compound 0.316 µM, first compound 0.1 µM) was 95.8% and the viability, T/C (second compound 0.316 µM, first compound 0.316 µM) was 105%. It also gave a viability, T/C (second compound 0.316 µM, first compound 1 µM) of 111%, a viability, T/C (second compound 0.316 µM, first compound 3.16 µM) of 12.4% and a viability, T/C (second compound 0.316 µM, first compound 10 µM) of 14.7%. For the same compound, the viability, T/C (second compound 1 µM, first compound 0.0316 µM) was 89.9%, the viability, T/C (second compound 1 µM, first compound 0.1 µM) was 97.2% and the viability, T/C (second compound 1 µM, first compound 0.316 µM) was 105%. For the same compound, the viability, T/C (second compound 1 µM, first compound 1 µM) was 90.9%, the viability, T/C (second compound 1 µM, first compound 3.16 µM) was 7.42% and the viability, T/C (second compound 1 µM, first compound 10 µM) was 13.8%.

In the case of `CC1(O)CCCC1n1c(=O)c(C(F)F)cc2cnc(NC3CCN(S(C)(=O)=O)CC3)nc21` (configuration not stated), the viability, T/C (compound 0.0316 µM) is reported as 93.3% [middle of 4 runs], the viability, T/C (compound 0.1 µM) is reported as 98.2% [middle of 4 runs] and the viability, T/C (compound 0.316 µM) is reported as 104% [middle of 4 runs]. For the same compound, the viability, T/C (compound 3.16 µM) was 123% (2×) and 107% and 97.5%, the viability, T/C (compound 10 µM) was 64.5% [middle of 4 runs] and the IC50 (curve of compound) was over 10000 nM.
